≈ marks a conversion by molar mass, not a printed value.
Tests used:
[1] = system: Staphylococcus aureus ATCC 43300; test: Broth microdilution MIC/MBC; conditions: ATCC43300 / MRSA
[2] = system: Escherichia coli ATCC 25922; test: Broth microdilution MIC/MBC; conditions: ATCC25922
Candida spp. = test: Broth microdilution, summary over reference yeasts; type: cell-based
Description: Procedures of in vitro antimicrobial assays are described in Supplementary Materials.
2. Microbiology – in vitro antimicrobial activity assays […]
using the broth microdilution method according to the European Committee on Antimicrobial Susceptibility Testing (EUCAST) and Clinical and Laboratory Standards Institute guidelines against a panel of reference and clinical or saprophytic strains of mi croorganisms, including the Gram-positive bacteria: Staphylococcus aureus ATCC 43300 (Methi-cillin Resistant S. aureus – MRSA), Staphylococcus aureus ATCC 29213 (Methicillin Susceptible S. aureus – MSSA), Staph-ylococcus epidermidis ATCC 12228, Micrococcus luteus ATCC 10240, Bacillus subtilis ATCC 6633 and Bacillus cereus ATCC 10876), Gram-negative bacteria: Bordetella bronchiseptica ATCC 4617, Escherichia coli ATCC 25922, Klebsiella pneumoniae ATCC 13883, Proteus mirabilis ATCC 12453, Salmonella typhimurium ATCC 14028 and Pseudomonas aeruginosa ATCC 9027, and fungi belonging to yeasts: Candida albicans ATCC 10231, Candida albicans ATCC 2091, Candida parapsilosis ATCC 22019, Candida glabrata ATCC 90030 and Candida krusei ATCC 14243. The microorganisms belonging to ATCC originated from American Type Culture Collection, routinely used for the evaluation of antimicrobials. All the used microbial cultures were first subcultured on nutrient agar or Sabouraud agar at 35°C for 18-24 h or 30°C for 24-48 h for bacteria […]
The surface of Mueller-Hinton agar (for bacteria) and RPMI 1640 with MOPS (for fungi) were inoculated with the suspensions of bacterial or fungal species. Microbial suspensions were prepared in sterile saline with an optical density of McFarland standard scale 0.5. The samples containing the compounds were dissolved in dimethyl sulfoxide (DMSO).
Furthermore, the bacterial and fungal suspensions put onto the Petri dishes with solid media containing 2 mg/mL of the tested compounds followed were incubated at 37°C for 24h and 30°C for 48h for bacteria and fungi, respectively.
The inhibition of microbial growth was estimated comparing with a control culture prepared without any tested sam- […]
antifungal compounds, respectively.
Subsequently, MIC (Minimal Inhibitory Concentration) of the compounds was examined by the microdilution broth method, using their two-fold dilutions in Mueller-Hinton broth (for bacteria) and RPMI 1640 broth with MOPS (for fungi) prepared in the 96-well polystyrene plates. The final concentrations of the compounds ranged from 1000 to 0.488 µg/mL. Microbial suspensions were prepared in 0.85% NaCl with an optical density of 0.5 McFarland standard. Next each bacterial or fungal suspension was added per each well containing broth and various concentrations of the exam-ined compounds. After incubation, the MIC was assessed spectrophotometrically as the lowest concentration of the […]
Appropriate DMSO, growth and sterile controls were carried out. The medium with no tested substances was used as a control The MBC (Minimal Bactericidal Concentration) and MFC (Minimal Fungicidal Concentration) are defined as the lowest concentration of the compounds that is required to kill a particular bacterial or fungal species. The MBC/MFC was determined by removing the culture used for the MIC determination from each well and spotted onto the appro-priate agar medium. The plates were incubated under appropriate conditions for bacteria and fungi. The lowest com-pounds concentration with no visible growth observed was assessed as a bactericidal/fungicidal concentration. All the experiments were repeated three times and the representative data are presented.
1. European Committee for Antimicrobial Susceptibility Testing (EUCAST) Determination of minimum inhibitory con-centrations (MICs) of antibacterial agents by broth dilution. EUCAST discussion document E. Dis 5.1. Clin. Microbiol.
2. Clinical and Laboratory Standards Institute. Reference method for broth dilution antifungal susceptibility testing of […]

[3] = system: Staphylococcus aureus ATCC 25923; test: Broth microdilution MIC/MBC; conditions: Staphylococcus aureus, ATCC25923
[4] = system: Candida glabrata ATCC 90030; test: Broth microdilution MIC/MFC; type: cell-based; conditions: Nakaseomyces glabratus; for MFC: ATCC90030, read-out: MFC; for MIC: ATCC90030, read-out: MIC
How it was run: (§1)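 Following EUCAST and CLSI guidance, growth inhibition is measured in broth across final compound levels of 1000 down to 0.488 µg/mL. Cidal endpoints come from spotting each well onto agar; three independent repeats.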

[5] = system: Candida albicans ATCC 10231; test: Broth microdilution MIC/MFC; type: cell-based; conditions: for MFC: ATCC10231, read-out: MFC; for MIC: ATCC10231, read-out: MIC
How it was run: as §1

[6] = system: Candida krusei ATCC 14243; test: Broth microdilution MIC/MFC; type: cell-based; conditions: Pichia kudriavzevii; for MFC: ATCC14243, read-out: MFC; for MIC: ATCC14243, read-out: MIC
How it was run: as §1

[7] = system: Candida albicans ATCC 2091; test: Broth microdilution MIC/MFC; type: cell-based; conditions: for MFC: ATCC2091, read-out: MFC; for MIC: ATCC2091, read-out: MIC
How it was run: as §1

[8] = system: Candida parapsilosis ATCC 22019; test: Broth microdilution MIC/MFC; type: cell-based; conditions: Lodderomyces parapsilosis; for MFC: ATCC22019, read-out: MFC; for MIC: ATCC22019, read-out: MIC
How it was run: as §1

[9] = system: Micrococcus luteus ATCC 10240; test: Broth microdilution MIC/MBC; conditions: Micrococcus luteus, ATCC10240
[10] = system: Bacillus subtilis ATCC 6633; test: Broth microdilution MIC/MBC; conditions: ATCC6633
[11] = system: Bordetella bronchiseptica ATCC 4617; test: Broth microdilution MIC/MBC; conditions: ATCC4617
[12] = system: Bacillus cereus ATCC 10876; test: Broth microdilution MIC/MBC; conditions: Bacillus cereus, ATCC10876
[13] = system: Staphylococcus aureus ATCC 29213; test: Broth microdilution MIC/MBC; conditions: ATCC29213
[14] = system: Staphylococcus epidermidis ATCC 12228; test: Broth microdilution MIC/MBC; conditions: ATCC12228
[15] = system: Salmonella typhimurium ATCC 14028; test: Broth microdilution MIC/MBC; conditions: Salmonella enterica
[16] = system: Klebsiella pneumoniae ATCC 13883; test: Broth microdilution MIC/MBC; conditions: ATCC13883
Gram-positive bacteria = test: Broth microdilution, summary over reference Gram-positive bacteria; type: cell-based; conditions: reference Gram-positive bacteria / studied bacteria
How it was run: as §1

[17] = system: Pseudomonas aeruginosa ATCC 9027; test: Broth microdilution MIC/MBC; conditions: ATCC9027
[18] = system: Proteus mirabilis ATCC 12453; test: Broth microdilution MIC/MBC; conditions: ATCC12453
[19] = system: Gram-positive bacterial strains; design: method as in doi:10.14419/ijac.v5i1.7155; conditions: mainly Gram-positive bacterial strains; cited from earlier work
[20] = range over the reference Candida spp. strains

Row | Structure (SMILES) | MIC [1] | MIC [2] | MIC (Candida spp.; [20]) | MIC [3] | melting point | MFC [4] | MIC [4] | MFC [5] | MIC [5] | MFC [6] | MIC [6] | MFC [7] | MIC [7] | MFC [8] | MIC [8] | MIC [9] | MIC [10] | MIC [11] | MIC [12] | MIC [13] | also measured
1 | O=C(N/N=C/c1cc(O)ccc1O)c1cccc(I)c1 [Compound 19, N-[(2,5-dihydroxyphenyl)methylidene]-3-iodobenzohydrazide] | > 1000 µg/mL | > 1000 µg/mL | 125 to 500 µg/mL (≈ 327 to 1310 µM) | > 1000 µg/mL | 220 to 224 °C | > 1000 µg/mL | 500 µg/mL (≈ 1310 µM) | > 1000 µg/mL | 250 µg/mL (≈ 654 µM) | > 1000 µg/mL | 250 µg/mL (≈ 654 µM) | > 1000 µg/mL | 500 µg/mL (≈ 1310 µM) | > 1000 µg/mL | 125 µg/mL (≈ 327 µM) | > 1000 µg/mL | > 1000 µg/mL | > 1000 µg/mL | > 1000 µg/mL | > 1000 µg/mL | MFC/MIC (Candida spp.; [20]): > 4; antifungal activity in words (Candida spp.; reference yeasts from Candida spp.): good and moderate; MIC [14]: > 1000 µg/mL; MIC [15]: > 1000 µg/mL; MIC [16]: > 1000 µg/mL; antibacterial activity in words (Gram-positive bacteria): no activity; MIC [17]: > 1000 µg/mL; MIC [18]: > 1000 µg/mL
2 | O=C(N/N=C/c1cc(O)ccc1O)c1ccc(I)cc1 [Compound 26, N-[(2,5-dihydroxyphenyl)methylidene]-4-iodobenzohydrazide] | 1000 µg/mL (≈ 2620 µM) | > 1000 µg/mL | 250 to 1000 µg/mL (≈ 654 to 2620 µM) | > 1000 µg/mL | 261 to 265 °C | > 1000 µg/mL | 1000 µg/mL (≈ 2620 µM) | > 1000 µg/mL | 500 µg/mL (≈ 1310 µM) | > 1000 µg/mL | 500 µg/mL (≈ 1310 µM) | > 1000 µg/mL | 1000 µg/mL (≈ 2620 µM) | > 1000 µg/mL | 250 µg/mL (≈ 654 µM) | 500 µg/mL (≈ 1310 µM) | 500 µg/mL (≈ 1310 µM) | > 1000 µg/mL | > 1000 µg/mL | > 1000 µg/mL | MBC [1]: > 1000 µg/mL; MFC (Candida spp.; [20]): > 1000 µg/mL; MBC [9]: > 1000 µg/mL; MBC [10]: > 1000 µg/mL; MBC [14]: > 1000 µg/mL; MIC [14]: 1000 µg/mL (≈ 2620 µM); MIC [15]: > 1000 µg/mL; MIC [16]: > 1000 µg/mL; MIC [17]: > 1000 µg/mL; MIC [18]: > 1000 µg/mL
3 | O=C(N/N=C/c1cc(Br)cc(Br)c1O)c1ccc(I)cc1 [Compound 28, N-[(3,5-dibromo-2-hydroxyphenyl)methylidene]-4-iodobenzohydrazide] | > 1000 µg/mL | > 1000 µg/mL | 250 to 1000 µg/mL (≈ 477 to 1910 µM) | > 1000 µg/mL | 210 to 211 °C | > 1000 µg/mL | 1000 µg/mL (≈ 1910 µM) | > 1000 µg/mL | 500 µg/mL (≈ 954 µM) | > 1000 µg/mL | 1000 µg/mL (≈ 1910 µM) | > 1000 µg/mL | 1000 µg/mL (≈ 1910 µM) | > 1000 µg/mL | 500 µg/mL (≈ 954 µM) | > 1000 µg/mL | > 1000 µg/mL | > 1000 µg/mL | > 1000 µg/mL | > 1000 µg/mL | MFC (Candida spp.; [20]): > 1000 µg/mL; MIC [14]: > 1000 µg/mL; MIC [15]: > 1000 µg/mL; MIC [16]: > 1000 µg/mL; antibacterial activity in words (Gram-positive bacteria): No antimicrobial effect; MIC [17]: > 1000 µg/mL; MIC [18]: > 1000 µg/mL
4 | O=C(NN=Cc1ccc(F)cc1)c1ccccc1 [N-(4-fluorobenzylidene)benzohydrazide] |  |  |  |  |  |  |  |  |  |  |  |  |  |  |  |  |  |  |  |  | zone of bacterial growth inhibition ZOI [19]: 6–7 mm
